Values of other authors, collected in patent US9744157B2, “Combinations of solifenacin and salivary stimulants for the treatment of overactive bladder” (TheraVida, Inc., priority 2011, dated 2017).

Tested on: saliva output
Settings: 5 mg of pilocarpine

Structure (SMILES): CC[C@@H]1C(=O)OC[C@@H]1Cc1cncn1C [pilocarpine]
- time of maximum saliva output after administration: about 30 minutes
